The source of these data is patent US6083964A, “Optical resolution of racemic aminoalkylpyridine anticonvulsants and (+) aminoalkylpyridine enantiomers as highly potent orally effective anticonvulsant drugs and excitatory amino acid antagonists” (K and K Biosciences, Inc., priority 1999, dated 2000).

Molecules are shown by their SMILES. Like-named read-outs stand apart in the source and are kept apart here. Some results are limits rather than exact numbers.

A short description of series [1]: Neurological deficit, positional sense test and gait and stance test, rats, p.o. As to conditions: rat, in vivo, po. On the set-up: species or system rat (Sprague-Dawley). The method, then: (§1) Neurotoxicity is determined by the rotorod ataxia test in mice and by the positional sense test and gait and stance test in the rat. The following Table 2 presents the results of these anticonvulsant tests with respect to several (+) and (-) AAP enantiomeric compounds derived from optical resolution of racemic AAPs of the present invention. This Table 2 identifies the specific compounds tested by their chemical name and provides the test model, the route of administration, the animal species used, and the anticonvulsant activity and toxicity in terms of ED50 and TD50 values, (the median effective and toxic dose respectively), when intraperitoneally administered to mice, and when orally administered to rats. […] This species will be the subject of the complete anticonvulsant quantification test evaluation as described above, but after oral (gavage) administration of the candidate compound. […] Neurological deficit in rats is examined by the positional sense test and gait and stance test. […] Inability to do so rapidly indicates a neurologic deficit. In the gait and stance test, a neurologic deficit is indicated by a circular or a zigzag gait, ataxia, abnormal spread of the legs, abnormal body posture, tremor, hyperactivity, lack of exploratory behavior, somnolence, stupor, or catalepsy.

The nature of series [2]: Neurotoxicity, rotorod ataxia test, mice, i.p. On the set-up: species or system mouse (male Carworth Farms #1). The settings on record: mouse, in vivo, ip, TD50. The method, then:
(§2) Neurotoxicity is determined by the rotorod ataxia test in mice and by the positional sense test and gait and stance test in the rat. The following Table 2 presents the results of these anticonvulsant tests with respect to several (+) and (-) AAP enantiomeric compounds derived from optical resolution of racemic AAPs of the present invention. This Table 2 identifies the specific compounds tested by their chemical name and provides the test model, the route of administration, the animal species used, and the anticonvulsant activity and toxicity in terms of ED50 and TD50 values, (the median effective and toxic dose respectively), when intraperitoneally administered to mice, and when orally administered to rats. In mice, i.p.: All compounds are emulsified in 0.5% methylcellulose. The solvent has been tested for anticonvulsant and toxic effects and found to introduce no significant bias into the testing of anticonvulsant activity. The compounds are administered intraperitoneally in a volume of 0.01 ml/gm to male Carworth Farms #1 mice weighing about 20 gm. All compounds are tested at least at three dose levels (30, 100 and 300 mg/kg) at 30 minutes and 4 hours after their administration. Neurotoxicity is evaluated in mice by the rotorod ataxia test. The animal is placed on a wooden rod of 1 and 1/8 diameter rotating at 6 rpm. Normal mice can remain on a rod rotating at this speed indefinitely. […] Anticonvulsant Quantification in Mice i.p.: The ED50 values are determined in the MES, scMet and rotorod ataxia test. To determine the ED50 values, five logarithmically spaced doses of the test compound are administered to animals (male Carworth Farms #1 mice) in groups of eight, to cover 0-100% protection, and the dose required to protect 50% of the animals (ED50) together with its 95% confidence limits, is determined graphically.
In general terms: In the rotarod test animals must keep their balance on a rotating rod.

The subject of another series is hippocampal kindled rats. Description: Toxicity in hippocampal kindled rats, i.p. It is filed as in vivo. The settings on record: 100 mg/kg i.p., 45 min. The method, then: The (+) AAP enantiomer, compound 1 in Table 1, was tested in the hippocampal kindled rat, by the i.p. route. […]
Series [3] concerns maximal electroshock seizure (MES) in mice. Description: Maximal electroshock seizure (MES) test, mice, i.p. It is filed as in vivo, mouse (male Carworth Farms #1). The settings on record: for P.I. (protective index, TD50/ED50): MES; for ED50: MES test. An excerpt:
The (+) AAP enantiomers obtained by optical resolution of racemic AAPs and the resulting highly orally effective anticonvulsant compositions of this invention are useful in the treatment of convulsive disorders. […] A series of (+) AAP enantiomers and (-) AAP enantiomers of this invention has been evaluated for anticonvulsant activity by the intraperitoneal (i.p.) and by the oral (p.o.) route using two standard seizure models in the mouse and in the rat, the maximal electroshock seizure (MES) test and the subcutaneous pentylenetetrazol (Metrazole) seizure threshold (scMet) test. […] The following Table 2 presents the results of these anticonvulsant tests with respect to several (+) and (-) AAP enantiomeric compounds derived from optical resolution of racemic AAPs of the present invention. This Table 2 identifies the specific compounds tested by their chemical name and provides the test model, the route of administration, the animal species used, and the anticonvulsant activity and toxicity in terms of ED50 and TD50 values, (the median effective and toxic dose respectively), when intraperitoneally administered to mice, and when orally administered to rats. In mice, i.p.: All compounds are emulsified in 0.5% methylcellulose. The solvent has been tested for anticonvulsant and toxic effects and found to introduce no significant bias into the testing of anticonvulsant activity. The compounds are administered intraperitoneally in a volume of 0.01 ml/gm to male Carworth Farms #1 mice weighing about 20 gm. All compounds are tested at least at three dose levels (30, 100 and 300 mg/kg) at 30 minutes and 4 hours after their administration. The Maximal Electroshock Seizure Test (MES): Maximal electroshock seizures are elicited with a 60 Hz alternating current of 50 mA intensity in mice and about 150 mA intensity in rats (5-7 times that necessary to elicit minimal electroshock seizures), delivered for 0.2 sec via corneal electrodes. A drop of 0.9% saline is instilled in the eye prior to application of the electrodes in order to […]. Abolition of the hind limb tonic extension component of the seizure is defined as protection and results are expressed as number of animals protected/number of animals tested. The Subcutaneous Pentylenetetrazol (Metrazole) Seizure Threshold Test (scMet): A 0.5% solution of 85 mg/kg of pentylenetetrazol is administered subcutaneously in the posterior midline 30 minutes or 4 hours after drug administration to the animal. […] Anticonvulsant Quantification in Mice i.p.: The ED50 values are determined in the MES, scMet and rotorod ataxia test. To determine the ED50 values, five logarithmically spaced doses of the test compound are administered to animals (male Carworth Farms #1 mice) in groups of eight, to cover 0-100% protection, and the dose required to protect 50% of the animals (ED50) together with its 95% confidence limits, is determined graphically.

Series [4] relates to neurological deficit in rats. Description: Neurological deficit, positional sense test and gait and stance test, rats, p.o. On the set-up: species or system rat (Sprague-Dawley). The settings on record: rat, in vivo, po. The method, then: as §1
Series [5] concerns neurotoxicity (rotorod ataxia) in mice. Nature of the series: Neurotoxicity, rotorod ataxia test, mice, i.p. Also noted: species or system mouse (male Carworth Farms #1). The settings on record: mouse, in vivo, ip. The method, then:
as §2

Broadly, the ED50 is the dose at which the effect has come halfway, by size or by number of responders. For the compound `CC(Nc1ccc(Cl)cc1)c1ccncc1` (single isomer, unassigned; (+)) [Compound 1, (+) N-(4-Chlorophenyl)-1-(4-pyridyl)ethylamine], the figures for the TD50 in series [1] and in series [2] were over 500 mg/kg and 149 mg/kg, respectively. Also, the “toxic (number of animals)” value in the series on hippocampal kindled rats is reported as 2/7. For the same compound, in series [3] (listed as (1) (+) Enantiomer), the “P.I. (protective index, TD50/ED50)” value came out at 4.2. In addition, in series [3] (Mus musculus, ip, read-out: ED50), the 50% effective dose (ED50) amounted to 35.9 mg/kg.

On to `CC(Nc1ccc(Cl)cc1)c1ccncc1` (single isomer, unassigned; (-)) [Compound 2, (-) N-(4-Chlorophenyl)-1-(4-pyridyl)ethylamine], for which the TD50 in series [4] is listed as over 500.0 mg/kg. In series [5], this compound gave a TD50 of 219.4 mg/kg. Also, in series [3] (listed as (1) (-) Enantiomer), the median effective dose (ED50) was found to be 60.3 mg/kg and the “P.I. (protective index, TD50/ED50)” value was determined as 3.6.
